Test: Absorbance and emission maxima of near IR fluorescent probes (Table 1)
Assay type: physicochemical

Cc1nn(-c2ccc(C(N)=O)c(NCCCOCCOCCOCCOCCOCCCNCc3ccc(C4=C(/C=C/C5=[N+](CCCCS(=O)(=O)[O-])c6ccccc6C5(C)C)CCC/C4=C\C=C4\N(CCCCS(=O)(=O)O)c5ccccc5C4(C)C)cc3)c2)c2c1C(=O)CC(C)(C)C2 [Compound 105, 4-(2-((E)-2-((E)-4′-(21-((2-carbamoyl-5-(3,6,6-trimethyl-4-oxo-4,5,6,7-tetrahydro-1H-indazol-1-yl)phenyl)amino)-6,9,12,15,18-pentaoxa-2-azahenicosyl)-6-(2-((E)-3,3-dimethyl-1-(4-sulfobutyl)indolin-2-ylidene)ethylidene)-3,4,5,6-tetrahydro-[1,1′-biphenyl]-2-yl)vinyl)-3,3-dimethyl-3H-indol-1-ium-1-yl)butane-1-sulfonate]
Abs. Max: 766 | Em. Max: 796

Cc1nn(-c2ccc(C(N)=O)c(NCCCOCCOCCOCCOCCOCCCNC(=O)c3ccc(C4=C(/C=C/C5=[N+](CCCCS(=O)(=O)[O-])c6ccccc6C5(C)C)CCC/C4=C\C=C4\N(CCCCS(=O)(=O)O)c5ccccc5C4(C)C)cc3)c2)c2c1C(=O)CC(C)(C)C2 [Compound 106, 4-(2-((E)-2-((E)-4′-((19-((2-carbamoyl-5-(3,6,6-trimethyl-4-oxo-4,5,6,7-tetrahydro-1H-indazol-1-yl)phenyl)amino)-4,7,10,13,16-pentaoxanonadecyl)carbamoyl)-6-(2-((E)-3,3-dimethyl-1-(4-sulfobutyl)indolin-2-ylidene)ethylidene)-3,4,5,6-tetrahydro-[1,1′-biphenyl]-2-yl)vinyl)-3,3-dimethyl-3H-indol-1-ium-1-yl)butane-1-sulfonate]
Abs. Max: 766 | Em. Max: 795

Cc1nn(-c2ccc(C(N)=O)c(NCCCOCCOCCOCCOCCOCCCNCc3ccc(C4=C(/C=C/C5=[N+](CCCCS(=O)(=O)[O-])c6ccc7ccccc7c6C5(C)C)CCC/C4=C\C=C4\N(CCCCS(=O)(=O)O)c5ccc6ccccc6c5C4(C)C)cc3)c2)c2c1C(=O)CC(C)(C)C2 [Compound 111]
Abs. Max: 803 | Em. Max: 828

Cc1nn(-c2ccc(C(N)=O)c(NCCCOCCOCCOCCOCCOCCCNC(=O)c3ccc(C4=C(/C=C/C5=[N+](CCCCS(=O)(=O)[O-])c6ccc7ccccc7c6C5(C)C)CCC/C4=C\C=C4\N(CCCCS(=O)(=O)O)c5ccc6ccccc6c5C4(C)C)cc3)c2)c2c1C(=O)CC(C)(C)C2 [Compound 112]
Abs. Max: 803 | Em. Max: 829

Cc1nn(-c2ccc(C(N)=O)c(NCCCOCCOCCOCCOCCOCCCNC(=O)c3ccc(C(=C\C=C4\N(CCCCS(=O)(=O)O)c5ccccc5C4(C)C)/C=C/C4=[N+](CCCCS(=O)(=O)[O-])c5ccccc5C4(C)C)cc3)c2)c2c1C(=O)CC(C)(C)C2 [Compound 102, 4-(2-((1E,3Z)-3-(4-((19-((2-carbamoyl-5-(3,6,6-trimethyl-4-oxo-4,5,6,7-tetrahydro-1H-indazol-1-yl)phenyl)amino)-4,7,10,13,16-pentaoxanonadecyl)-carbamoyl)phenyl)-5-((E)-3,3-dimethyl-1-(4-sulfobutyl)indolin-2-ylidene)penta-1,3-dien-1-yl)-3,3-dimethyl-3H-indol-1-ium-1-yl)butane-1-sulfonate]
Abs. Max: 643 | Em. Max: 670

Cc1nn(-c2ccc(C(N)=O)c(NCCCOCCOCCOCCOCCOCCCNCc3ccc(C4=C(/C=C/C5=[N+](CCCCS(=O)(=O)[O-])c6ccc(S(=O)(=O)O)cc6C5(C)C)CCC/C4=C\C=C4\N(CCCCS(=O)(=O)O)c5ccc(S(=O)(=O)O)cc5C4(C)C)cc3)c2)c2c1C(=O)CC(C)(C)C2 [Compound 108, 4-(2-((E)-2-((E)-4′-(21-((2-carbamoyl-5-(3,6,6-trimethyl-4-oxo-4,5,6,7-tetrahydro-1H-indazol-1-yl)phenyl)amino)-6,9,12,15,18-pentaoxa-2-azahenicosyl)-6-(2-((E)-3,3-dimethyl-5-sulfo-1-(4-sulfobutyl)indolin-2-ylidene)ethylidene)-3,4,5,6-tetrahydro-[1,1′-biphenyl]-2-yl)vinyl)-3,3-dimethyl-5-sulfo-3H-indol-1-ium-1-yl)butane-1-sulfonate]
Abs. Max: 775 | Em. Max: 802
